# Source: patent US9181238B2, “N-(pyridin-2-yl)sulfonamides and compositions thereof as protein kinase inhibitors” (NOVARTIS AG, priority 2010, dated 2015)
# System: A375-luc cells
# Experiment: A375 Cellular Proliferation Assay
# Type: cell-based
# Settings: Homo sapiens, A-375, 48 h; A375-luc melanoma cells (B-Raf V600E), 2 days incubation, BrightGlo luminescence; read-out: A375 CP IC50
# Procedure: A375 Cellular Proliferation Assay
# A375 is a melanoma cell line that harbors the B-Raf V600E mutation. A375-luc cells engineered to express luciferase are plated to 384-well white clear bottom plates as 1,500 cells/50 μl/well in DMEM containing 10% FBS. Compounds of the invention dissolved in 100% DMSO at appropriate concentrations are transferred to the cells by a robotic Pin Tool (100 nl). The cells are incubated for 2 days at […], then 25 μl of BrightGlo™ is added to each well and the plates are read by luminescence. The concentration of each compound for 50% inhibition (IC50) was calculated by non-linear regression using XL Fit data analysis software.
row,IC50 [nM],SMILES
1,31,"CCCS(=O)(=O)Nc1ncc(F)c(Nc2nccnc2-c2cc(NC)ncn2)c1F [Compound 5, N-(3,5-difluoro-4-(3-(6-(methylamino)pyrimidin-4-yl)pyrazin-2-ylamino)pyridin-2-yl)propane-1-sulfonamide]"
2,12,"CCCS(=O)(=O)Nc1ncc(F)c(-c2cc3cnc(NCCC#N)cc3n(C)c2=O)c1F [Compound 15, N-(4-(7-(2-cyanoethylamino)-1-methyl-2-oxo-1,2-dihydro-1,6-naphthyridin-3-yl)-3,5-difluoropyridin-2-yl)propane-1-sulfonamide]"
3,130,"CNc1ncc2cc(-c3c(F)cnc(NS(=O)(=O)CCC(F)(F)F)c3F)c(=O)n(C)c2n1 [Compound 14, N-(3,5-difluoro-4-(8-methyl-2-(methylamino)-7-oxo-7,8-dihydropyrido[2,3-d]pyrimidin-6-yl)pyridin-2-yl)-3,3,3-trifluoropropane-1-sulfonamide]"
4,56,"CCCS(=O)(=O)Nc1ncc(F)c(-c2cc3cnc(NC)nc3n(C)c2=O)c1F [Compound 10, N-(3,5-difluoro-4-(8-methyl-2-(methylamino)-7-oxo-7,8-dihydropyrido[2,3-d]pyrimidin-6-yl)pyridin-2-yl)propane-1-sulfonamide]"
5,3,"CCCS(=O)(=O)Nc1ncc(F)c(Nc2nccnc2-c2cc(NCCC#N)ncn2)c1F [Compound 2, N-(4-(3-(6-(2-cyanoethylamino)pyrimidin-4-yl)pyrazin-2-ylamino)-3,5-difluoropyridin-2-yl)propane-1-sulfonamide]"
6,49,"CCCS(=O)(=O)Nc1ncc(F)c(Nc2nccnc2-c2cc(NCC(F)(F)F)ncn2)c1F [Compound 7, N-(3,5-difluoro-4-(3-(6-(2,2,2-trifluoroethylamino)pyrimidin-4-yl)pyrazin-2-ylamino)pyridin-2-yl)propane-1-sulfonamide]"
7,21,"CCCS(=O)(=O)Nc1ncc(F)c(Nc2nccnc2-c2cc(NCCC(F)(F)F)ncn2)c1F [Compound 3, N-(3,5-difluoro-4-(3-(6-(3,3,3-trifluoropropylamino)pyrimidin-4-yl)pyrazin-2-ylamino)pyridin-2-yl)propane-1-sulfonamide]"
8,12,"CCCS(=O)(=O)Nc1ncc(F)c(Nc2nccnc2-c2cc(NCC(F)F)ncn2)c1F [Compound 4, N-(4-(3-(6-(2,2-difluoroethylamino)pyrimidin-4-yl)pyrazin-2-ylamino)-3,5-difluoropyridin-2-yl)propane-1-sulfonamide]"
9,14,"CCCS(=O)(=O)Nc1ncc(F)c(-c2cc3cnc(NC[C@H](C)NC(=O)OC)nc3n(C)c2=O)c1F [Compound 12, (S)-methyl 1-(6-(3,5-difluoro-2-(propylsulfonamido)pyridin-4-yl)-8-methyl-7-oxo-7,8-dihydropyrido[2,3-d]pyrimidin-2-ylamino)propan-2-ylcarbamate]"
10,121,"CCCS(=O)(=O)Nc1ncc(F)c(Nc2nccnc2-c2cc(NCC)ncn2)c1Cl [Compound 6, N-(3-chloro-4-(3-(6-(ethylamino)pyrimidin-4-yl)pyrazin-2-ylamino)-5-fluoropyridin-2-yl)propane-1-sulfonamide]"
11,229,"CCCS(=O)(=O)Nc1nccc(-c2cc3cnc(NC)nc3n(C)c2=O)c1F [Compound 11, N-(3-fluoro-4-(8-methyl-2-(methylamino)-7-oxo-7,8-dihydropyrido[2,3-d]pyrimidin-6-yl)pyridin-2-yl)propane-1-sulfonamide]"
12,13,"CCCS(=O)(=O)Nc1ncc(F)c(Nc2nccnc2-c2cc(NCC)ncn2)c1F [Compound 1, N-(4-(3-(6-(Ethylamino)pyrimidin-4-yl)pyrazin-2-ylamino)-3,5-difluoropyridin-2-yl)propane-1-sulfonamide]"
13,191,"CCCS(=O)(=O)Nc1ncc(F)c(Nc2nccnc2-c2cc(NCCS(C)(=O)=O)ncn2)c1F [Compound 8, N-(3,5-difluoro-4-(3-(6-(2-(methylsulfonyl)ethylamino)pyrimidin-4-yl)pyrazin-2-ylamino)pyridin-2-yl)propane-1-sulfonamide]"

row,SMILES,IC50 [nM]
1,"CCCS(=O)(=O)Nc1ncc(F)c(-c2cc3cnc(NCC)cc3n(C)c2=O)c1F [Compound 13, N-(4-(7-(Ethylamino)-1-methyl-2-oxo-1,2-dihydro-1,6-naphthyridin-3-yl)-3,5-difluoropyridin-2-yl)propane-1-sulfonamide]",10
